One assay deals with T1, KDM4A (Homo sapiens, UniProt O75164).
T1 construct: N-terminal His-tagged KDM4A^1-350 was purchased from BPS Biosciences; His (N); purchased BPS Biosciences
T1 sequence (O75164 1-350): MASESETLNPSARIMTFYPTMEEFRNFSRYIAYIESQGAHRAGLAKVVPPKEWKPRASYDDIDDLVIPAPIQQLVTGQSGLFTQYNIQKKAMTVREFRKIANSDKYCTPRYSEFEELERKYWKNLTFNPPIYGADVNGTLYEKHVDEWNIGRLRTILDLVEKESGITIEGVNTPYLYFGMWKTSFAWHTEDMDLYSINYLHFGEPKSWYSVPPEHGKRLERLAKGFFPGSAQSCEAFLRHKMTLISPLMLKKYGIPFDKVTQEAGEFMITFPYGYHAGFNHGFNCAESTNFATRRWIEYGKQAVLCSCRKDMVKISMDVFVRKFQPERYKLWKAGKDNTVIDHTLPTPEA
The assay can be described thus: KDM4A Assay (SAMDI mass spectrometry demethylase assay). The settings on record: N-terminal His-tagged KDM4A 1-350, read-out: 4A IC50. The class given is biochemical. An outline of the steps: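 His-tagged KDM4A 1-350 (5 nM final) was preincubated 30 min with compound (10 μM final for screening) in 50 mM HEPES pH 8.0 with ascorbate, 10 μM Fe(II) and TCEP. Biotinylated Kme2 peptide (600 nM) and 2-oxoglutarate (5 μM) reacted 120 min at 25°C before a formic acid stop. SAMDI-MS % conversion from substrate and product peak areas; IC50 from dose-response.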

The target in another assay is T2, KDM4C (Homo sapiens, UniProt Q9H3R0).
T2 construct: N-terminal GST-tagged KDM4C^2-372 was purchased from BPS Biosciences; GST (N); purchased BPS Biosciences
T2 sequence (Q9H3R0 2-372): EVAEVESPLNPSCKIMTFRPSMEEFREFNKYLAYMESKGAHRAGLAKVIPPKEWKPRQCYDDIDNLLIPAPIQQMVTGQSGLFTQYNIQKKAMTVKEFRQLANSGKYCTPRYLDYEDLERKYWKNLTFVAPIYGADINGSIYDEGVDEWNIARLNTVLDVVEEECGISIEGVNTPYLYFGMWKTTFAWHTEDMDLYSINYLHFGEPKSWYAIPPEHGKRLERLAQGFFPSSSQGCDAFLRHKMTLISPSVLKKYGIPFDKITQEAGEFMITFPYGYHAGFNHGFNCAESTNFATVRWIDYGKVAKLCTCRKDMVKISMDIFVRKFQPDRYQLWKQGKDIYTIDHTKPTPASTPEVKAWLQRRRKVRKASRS
The assay can be described thus: KDM4C Assay (SAMDI mass spectrometry demethylase assay). The class given is biochemical. The following applies: N-terminal GST-tagged KDM4C 2-372, read-out: 4C IC50. Summed up:
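GST-tagged KDM4C 2-372 (5 nM) preincubated 30 min with compound, then H3K9me3 biotinylated peptide (500 nM) and 2-oxoglutarate (15 μM) added in HEPES pH 8.0 with ascorbate, Fe(II), TCEP; 150 min at 25 °C, formic-acid quench. Conversion by SAMDI mass spectrometry from substrate/product peak AUC; IC50 from dose-response.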

SMILES strings stand for the structures. Where two headings read alike, the source gives them in different places.

In the case of `Cn1ncc(-c2cccnc2)c1Nc1cnccc1C(=O)O` [Compound 4], the IC50 on KDM4A (class symbols) and on KDM4C (class symbols) was 1000 to 10000 nM each time.

As for `Cn1nc(Nc2cnccc2C(=O)O)cc1-c1ccccc1` [Compound 5], the IC50 at KDM4A (class symbols) and on KDM4C (class symbols) was 100 to 1000 nM throughout.

With `Cc1nn([C@H]2CC[C@@H](N)CC2)cc1Nc1cnccc1C(=O)O` [Compound 80, 3-((1-((cis)-4-aminocyclohexyl)-3-methyl-1H-pyrazol-4-yl)amino)isonicotinic acid], the half-inhibitory concentration (IC50) at KDM4A (class symbols) and at KDM4C (class symbols) was 100 to 1000 nM throughout.

In the case of `CCc1c(Nc2cnccc2C(=O)O)cnn1-c1ccccc1` [Compound 81, 3-((5-ethyl-1-phenyl-1H-pyrazol-4-yl)amino)isonicotinic acid], the half-maximal inhibitory concentration (IC50) at KDM4A (class symbols) and on KDM4C (class symbols) was 1 to 100 nM in each case.

As for `Cc1ccc(-n2cc(Nc3cnccc3C(=O)O)c(C)n2)cc1` [Compound 82], the IC50 at KDM4A (class symbols) and on KDM4C (class symbols) was 1 to 100 nM each time.

Take `NC1CCC(n2nc(-c3cccc(Cl)c3)cc2Nc2cnccc2C(=O)O)CC1` (stereo not shown) [Compound 85, 3-((1-(4-aminocyclohexyl)-3-(3-chlorophenyl)-1H-pyrazol-5-yl)amino)isonicotinic acid]: the IC50 on KDM4A (class symbols) and at KDM4C (class symbols) was 1000 to 10000 nM throughout.

In the case of `O=C(O)c1ccncc1Nc1cc(-c2cccc(Cl)c2)n(C2CCC3(CC2)OCCO3)n1` [Compound 86, 3-((5-(3-chlorophenyl)-1-(1,4-dioxaspiro[4.5]decan-8-yl)-1H-pyrazol-3-yl)amino)isonicotinic acid], the results for the concentration for half-maximal inhibition (IC50) on KDM4A (class symbols) and on KDM4C (class symbols) were 100 to 1000 nM and 1000 to 10000 nM, respectively.

As to `NC1CCC(n2nc(Nc3cnccc3C(=O)O)cc2-c2cccc(Cl)c2)CC1` (stereo not shown) [Compound 87, 3-((1-(4-aminocyclohexyl)-5-(3-chlorophenyl)-1H-pyrazol-3-yl)amino)isonicotinic acid], the IC50 on KDM4A (class symbols) and on KDM4C (class symbols) was 10000 to 100000 nM each time.

Turning to `O=C(O)c1ccncc1Nc1nn(-c2ccccc2)cc1-c1ccncc1` [Compound 88, 3-((1-phenyl-4-(pyridin-4-yl)-1H-pyrazol-3-yl)amino) isonicotinic acid], the half-inhibitory concentration (IC50) (commonly the point on the concentration scale where inhibition reaches its midpoint) fell in the range of 100 to 1000 nM at KDM4A (class symbols) and 1 to 100 nM at KDM4C (class symbols).

For `Cc1nn(C2CCN(CC3CC3)CC2)cc1Nc1cnccc1C(=O)O` [Compound 89, 3-(1-(1-(cyclopropylmethyl)piperidin-4-yl)-3-methyl-1H-pyrazol-4-ylamino)isonicotinic acid], the values for the IC50 at KDM4A (class symbols) and on KDM4C (class symbols) were 1 to 100 nM and 100 to 1000 nM, respectively.

Regarding `Cc1c(Nc2cnccc2C(=O)O)cnn1C1CCN(CC2CC2)CC1` [Compound 90, 3-(1-(1-(cyclopropylmethyl)piperidin-4-yl)-5-methyl-1H-pyrazol-4-ylamino) isonicotinic acid], the IC50 on KDM4A (class symbols) and on KDM4C (class symbols) was 100 to 1000 nM each time.

`Cc1nn(C2CCN(C3CN(C)C3)CC2)cc1Nc1cnccc1C(=O)O` [Compound 91, 3-(3-methyl-1-(1-(1-methylazetidin-3-yl)piperidin-4-yl)-1H-pyrazol-4-ylamino)isonicotinic acid]: the 50% inhibitory concentration (IC50) lay within 100 to 1000 nM at KDM4A (class symbols) and 1000 to 10000 nM on KDM4C (class symbols).

Regarding `Cc1c(Nc2cnccc2C(=O)O)cnn1C1CCN(C2CN(C)C2)CC1` [Compound 92, 3-(5-methyl-1-(1-(1-methylazetidin-3-yl)piperidin-4-yl)-1H-pyrazol-4-ylamino)isonicotinic acid], the 50% inhibitory concentration (IC50) on KDM4A (class symbols) and at KDM4C (class symbols) was 100 to 1000 nM in each case.

`COC(=O)c1ccncc1Nc1cn(C2CCN(C3CCC3)CC2)nc1C` [Compound 93, methyl 3-((1-(1-cyclobutylpiperidin-4-yl)-3-methyl-1H-pyrazol-4-yl)amino)isonicotinate]: the results for the IC50 at KDM4A (class symbols) and on KDM4C (numeric bound) were 10000 to 100000 nM and > 100000 nM, respectively.

In the case of `Cc1nn(C2CCN(C3CCC3)CC2)cc1Nc1cnccc1C(=O)O` [Compound 94, 3-(1-(1-cyclobutylpiperidin-4-yl)-3-methyl-1H-pyrazol-4-ylamino)isonicotinic acid], the concentration for half-maximal inhibition (IC50) was in the range of 1 to 100 nM on KDM4A (class symbols) and 100 to 1000 nM at KDM4C (class symbols).

With `COC(=O)c1ccncc1Nc1cnn(C2CCN(C3CCC3)CC2)c1C` [Compound 95, methyl 3-((1-(1-cyclobutylpiperidin-4-yl)-5-methyl-1H-pyrazol-4-yl)amino)isonicotinate], the IC50 at KDM4A (class symbols) and at KDM4C (class symbols) was 10000 to 100000 nM in each case.

Regarding `CN1CCC(n2ncc(Nc3cnccc3C(=O)O)c2-c2ccccc2)CC1` [Compound 126, 3-(1-(1-methylpiperidin-4-yl)-5-phenyl-1H-pyrazol-4-ylamino) isonicotinic acid], the IC50 at KDM4A (numeric value) was 1490 nM; at KDM4C (class symbols), 1000 to 10000 nM.
